Test results published in patent US20200032249A1, “LABELING, ISOLATION, & ANALYSIS OF RNA FROM RARE CELL POPULATIONS” (priority 2017, published 2020).

What was measured:
MDA231 cells = test: stress granule formation by G3BP immunostaining; type: cell-based; settings: for treatment time after which cells started to form stress granules: human
Procedure: FIG. 2a-b. Flura-tagging has minimal cytotoxicity. FIG. 2a—Effect of Flura-tagging on stress granule formation. MDA231 cells were treated with 5-FC for the indicated times, and the formation of stress granules was detected by G3BP immunostaining. Control cells were either treated with water or sodium arsenite (Arsenite) for one hour. Arrows indicate stress granules (n=3). Scale bar=20 μM. FIG. 2b—Effect of Flura-tagging on transcription. RNA expression in control cells was compared to CD/UPRT-expressing cells treated with the indicated concentrations of 5-FC for 4 h or 12 h. Each dot represents a gene, with the outer/lighter gray dots indicating genes showing more than 2-fold differential expression, as determined by DESeq2 (n=2). The dotted line represents the four-fold cutoff mark.
5-FU is extensively used as a chemotherapeutic agent for the treatment of solid tumors, based on its ability to induce cancer cell death by inhibiting thymidylate synthase and by causing DNA and RNA damage (12-14). It was therefore crucial to test whether our 5-FU-tagging method, which is based on low concentrations of 5-FC and short incubation time periods, has significant cytotoxic effects under our experimental conditions. CD/UPRT-expressing cells were treated with 5-FC at concentrations of up to 250 μM for up to 12 h (“Flura-tagged” cells), and the effects of this treatment on RNA damage response and transcriptional regulation were investigated.
A key feature of the RNA damage response is the formation of stress granules (15). Ras GTPase-activating protein-binding protein 1 (G3BP), a key component of stress granules, forms distinct foci during stress granule formation (12). We determined the dose- and time-dependent effect of 5-FC treatment on stress granule formation by immunostaining of the cells with anti-G3BP antibody. […] The 5-FC-treated cells started to form stress granules only after 24 h of treatment with 1 mM 5-FC, a concentration four times higher than the maximal concentration of 5-FC used for Flura-tagging, or after 48 h of 5-FC treatment at lower concentrations (FIG. 2a).
Human embryonic kidney transformed with […] (293T) and human breast cancer MDA-MB-231 (MDA231) cells were cultured in DMEM High Glucose medium (Wheaton) supplemented with 10% Fetal Bovine Serum (Clontech, Catalog number 631106) supplemented with 2 mM L-Glutamine. All cell lines have been routinely tested for mycoplasma contamination. For the induction of CD or CD and UPRT, cells were treated with 1 μg/ml doxycycline for 24 h. For Fluorouracil tagging, cells were treated with 250 μM of 5-FC or 5-FU unless indicated. Where indicated, 125 μM thymine was added together with 5-FC. […]

[1] = system: MDA231 cells expressing CD/UPRT in mouse lungs; test: Flura-seq of lung micrometastases, reads aligned to hybrid human-mouse genome; type: in vivo
Procedure: FIG. 3 a-g. Flura-tagging of mRNA in vivo. FIG. 3a—Schematic diagram of lung colonization xenograft assay used for evaluation of Flura-tagging/Flura-seq. Athymic mice were injected through the tail vein with 50,000 MDA231 cells expressing CD/UPRT and GFP-luciferase. Upon the development of detectable bioluminescent lung metastases (4 weeks), mice were treated with doxycycline to induce CD/UPRT expression and injected with 5-FC. Lungs were harvested, and Flura-tagged mRNAs were immunopurified. FIG. 3b—Comparison of signal-to-noise ratio of Flura-tagging and TU-tagging in vivo. Mice were injected with either 5-FC or TU, the Flura-tagged or TU-tagged mRNAs were purified 12 h post injection, and the relative fold enrichment of representative human housekeeping genes relative to representative murine housekeeping genes (mHPRT1, mLDH1, mPGK1 and mGAPDH), normalized to their corresponding unpurified inputs, were measured by RT-PCR (n=5, ±S.E.). FIG. 3c—Quantification of the number of human cells in the mouse lungs used for Flura-tagging. Half of the mouse lungs used for Flura-tagging in FIG. 3b was dissociated into single cells, and the number of RFP+ cells was quantified using flow cytometry. The total number of MDA231 cells per lung was estimated based on an assumption of 1.5×10^8 cells per mouse lung (20) (n=5). […] RNA reads were aligned to a hybrid genome containing the human and mouse genomes. […]

Structure (SMILES): Nc1nc(=O)[nH]cc1F [5-FC, 5-fluorocytosine]
- stress granules after 12 h (MDA231 cells): did not contain stress granules
- treatment time after which cells started to form stress granules (MDA231 cells): 48 h
- treatment time after which cells started to form stress granules (MDA231 cells; 1 mM): 24 h
- aligned reads mapped to human genome ([1]; mice treated for 4 h): approximately 53%
- aligned reads mapped to human genome ([1]; mice treated for 12 h): 74%
